Source: ChEMBL document CHEMBL3870329, “Synthesis of peptide nucleic acids (PNA) with a crosslinking agent to RNA and effective inhibition of dicer” (Bioorg Med Chem Lett, 2016)
One block for each compound: values may come before it. Activity calls are given as the source filed them. The calls are words filed in the database; no cut-off is given here.

What was measured:
[1] = test system: Nucleic Acid; assay: Binding affinity to synthetic 5'-FAM-labelled pre-miR-122 RNA site2 (unknown origin) assessed as heteroduplex formation at 4 uM measured after 2 hrs by denaturing PAGE analysis relative to control; type: nucleic-acid assay
[2] = test system: Nucleic Acid; assay: Binding affinity to synthetic 5'-fluorescein-labelled pre-miR-122 RNA site2 (unknown origin) assessed as heteroduplex formation at 4 uM measured after 48 hrs by non-denaturing PAGE analysis relative to control; type: nucleic-acid assay
[3] = test system: Nucleic Acid; assay: Binding affinity to synthetic 5'-FAM-labelled pre-miR-122 RNA site2 (unknown origin) assessed as inhibition of human dicer-mediated digestion of pre-miR-122 RNA preincubated with RNA for 2 days followed by dicer addition measured after 2 hrs by denaturing PAGE analysis relative to control; type: nucleic-acid assay; details: concentration not given here
[4] = test system: Nucleic Acid; assay: Binding affinity to synthetic 5'-FAM-labelled pre-miR-122 RNA site2 (unknown origin) assessed as human dicer-mediated digestion of pre-miR-122 RNA preincubated with RNA for 2 days followed by dicer addition measured after 2 hrs by denaturing PAGE analysis; type: nucleic-acid assay
[5] = test system: Nucleic Acid; assay: Binding affinity to synthetic 5'-FAM-labelled pre-miR-122 RNA site3 (unknown origin) assessed as inhibition of human dicer-mediated digestion of pre-miR-122 RNA by measuring heteroduplex formation preincubated with RNA for 2 days followed by dicer addition measured after 2 hrs by denaturing PAGE analysis relative to control; type: nucleic-acid assay; details: concentration not given here
[6] = test system: Nucleic Acid; assay: Binding affinity to synthetic 5'-FAM-labelled pre-miR-122 RNA site3 (unknown origin) assessed as human dicer-mediated digestion of pre-miR-122 RNA preincubated with RNA for 2 days followed by dicer addition measured after 2 hrs by denaturing PAGE analysis; type: nucleic-acid assay
[7] = test system: Nucleic Acid; assay: Binding affinity to synthetic 5'-FAM-labelled pre-miR-122 RNA site3 (unknown origin) assessed as heteroduplex formation at 4 uM measured after 2 hrs by denaturing PAGE analysis relative to control; type: nucleic-acid assay
[8] = test system: Nucleic Acid; assay: Binding affinity to synthetic 5'-fluorescein-labelled pre-miR-122 RNA site3 (unknown origin) assessed as heteroduplex formation at 4 uM measured after 48 hrs by non-denaturing PAGE analysis relative to control; type: nucleic-acid assay
[9] = test system: Nucleic Acid; assay: Binding affinity to synthetic 5'-FAM-labelled pre-miR-122 RNA site1 (unknown origin) assessed as heteroduplex formation at 4 uM measured after 2 hrs by denaturing PAGE analysis relative to control; type: nucleic-acid assay
[10] = test system: Nucleic Acid; assay: Binding affinity to synthetic 5'-FAM-labelled pre-miR-122 RNA site1 (unknown origin) assessed as human dicer-mediated digestion of pre-miR-122 RNA preincubated with RNA for 2 days followed by dicer addition measured after 2 hrs by denaturing PAGE analysis; type: nucleic-acid assay
[11] = test system: Nucleic Acid; assay: Binding affinity to synthetic 5'-FAM-labelled pre-miR-122 RNA site1 (unknown origin) assessed as inhibition of human dicer-mediated digestion of pre-miR-122 RNA preincubated with RNA for 2 days followed by dicer addition measured after 2 hrs by denaturing PAGE analysis relative to control; type: nucleic-acid assay; details: concentration not given here
[12] = test system: Nucleic Acid; assay: Binding affinity to synthetic 5'-fluorescein-labelled pre-miR-122 RNA site1 (unknown origin) assessed as heteroduplex formation at 4 uM measured after 48 hrs by non-denaturing PAGE analysis relative to control; type: nucleic-acid assay
[13] = test system: Nucleic Acid; assay: Binding affinity to 5'-end FAM-tagged GACTCAATCCCAATCTGGTT DNA (unknown origin) assessed as induction of crosslinking by measuring heteroduplex formation at 4 uM measured after 24 hrs by bromophenol blue staining-based denaturing PAGE analysis relative to control; type: nucleic-acid assay
[14] = test system: Nucleic Acid; assay: Binding affinity to 5'-end FAM-tagged GACACAATCCCAATCTGGTT DNA (unknown origin) assessed as induction of crosslinking by measuring heteroduplex formation at 4 uM measured after 24 hrs by bromophenol blue staining-based denaturing PAGE analysis relative to control; type: nucleic-acid assay
[15] = test system: Nucleic Acid; assay: Binding affinity to 5'-end FAM-tagged GACCCAAUCCCAAUCUGGUU RNA (unknown origin) assessed as induction of crosslinking by measuring heteroduplex formation at 4 uM measured after 24 hrs by bromophenol blue staining-based denaturing PAGE analysis relative to control; type: nucleic-acid assay
[16] = test system: Nucleic Acid; assay: Binding affinity to 5'-end FAM-tagged GACGCAATCCCAATCTGGTT DNA (unknown origin) assessed as induction of crosslinking by measuring heteroduplex formation at 4 uM measured after 24 hrs by bromophenol blue staining-based denaturing PAGE analysis relative to control; type: nucleic-acid assay
[17] = test system: Nucleic Acid; assay: Binding affinity to 5'-end FAM-tagged GACGCAAUCCCAAUCUGGUU RNA (unknown origin) assessed as induction of crosslinking by measuring heteroduplex formation at 4 uM measured after 24 hrs by bromophenol blue staining-based denaturing PAGE analysis relative to control; type: nucleic-acid assay
[18] = test system: Nucleic Acid; assay: Binding affinity to 5'-end FAM-tagged GACACAAUCCCAAUCUGGUU RNA (unknown origin) assessed as induction of crosslinking by measuring heteroduplex formation at 4 uM measured after 24 hrs by bromophenol blue staining-based denaturing PAGE analysis relative to control; type: nucleic-acid assay
[19] = test system: Nucleic Acid; assay: Binding affinity to 5'-end FAM-tagged GACUCAAUCCCAAUCUGGUU RNA (unknown origin) assessed as induction of crosslinking by measuring heteroduplex formation at 4 uM measured after 24 hrs by bromophenol blue staining-based denaturing PAGE analysis relative to control; type: nucleic-acid assay
[20] = test system: unidentified; assay: Binding affinity to 5'-end FAM-tagged GACUCAAUCCCAAUCUGGUU RNA (unknown origin) assessed as melting temperature at 1.5 uM measured after 5 mins by UV spectrophotometry (reference value: 82.2 degC)
[21] = Binding affinity to 5'-end FAM-tagged GACTCAATCCCAATCTGGTT DNA (unknown origin) assessed as crosslinked adduct formation by MALDI-TOF MS analysis
[22] = test system: unidentified; assay: Binding affinity to 5'-end FAM-tagged GACTCAATCCCAATCTGGTT DNA (unknown origin) assessed as melting temperature at 1.5 uM measured after 5 mins by UV spectrophotometry (reference value: 79.2 degC)
[23] = test system: Nucleic Acid; assay: Binding affinity to 5'-end FAM-tagged GACCCAATCCCAATCTGGTT DNA (unknown origin) assessed as induction of crosslinking by measuring heteroduplex formation at 4 uM measured after 24 hrs by bromophenol blue staining-based denaturing PAGE analysis relative to control; type: nucleic-acid assay
[24] = Binding affinity to 5'-end FAM-tagged GACCAACCCCAATCTGGTT DNA (unknown origin) assessed as change in melting temperature at 1.5 uM measured after 5 mins by UV spectrophotometry
[25] = Binding affinity to 5'-end FAM-tagged GACCAATCCCAATCTGGTT DNA (unknown origin) assessed as change in melting temperature at 1.5 uM measured after 5 mins by UV spectrophotometry
[26] = Binding affinity to 5'-end FAM-tagged GACCAAACCCAAUCUGGUU RNA (unknown origin) assessed as change in melting temperature at 1.5 uM measured after 5 mins by UV spectrophotometry
[27] = Binding affinity to 5'-end FAM-tagged GACCAAGCCCAAUCUGGUU RNA (unknown origin) assessed as change in melting temperature at 1.5 uM measured after 5 mins by UV spectrophotometry
[28] = Binding affinity to 5'-end FAM-tagged GACCAAUCCCAAUCUGGUU RNA (unknown origin) assessed as change in melting temperature at 1.5 uM measured after 5 mins by UV spectrophotometry
[29] = Binding affinity to 5'-end FAM-tagged GACCAACCCCAAUCUGGUU RNA (unknown origin) assessed as change in melting temperature at 1.5 uM measured after 5 mins by UV spectrophotometry
[30] = Binding affinity to 5'-end FAM-tagged GACCAAGCCCAATCTGGTT DNA (unknown origin) assessed as change in melting temperature at 1.5 uM measured after 5 mins by UV spectrophotometry
[31] = Binding affinity to 5'-end FAM-tagged GACCAAACCCAATCTGGTT DNA (unknown origin) assessed as change in melting temperature at 1.5 uM measured after 5 mins by UV spectrophotometry

Activity [1]: 15% | Activity [2]: 41% | inhibition [3]: 41% | Activity [4]: 59%
SMILES: C=Cc1nc(N)nc2c1ncn2CC(=O)N(CCN)CC(=O)NCCN(CC(=O)NCCN(CC(=O)NCCN(CC(=O)NCCN(CC(=O)NCCN(CC(=O)NCCN(CC(=O)NCCN(CC(=O)NCCN(CC(=O)NCCN(CC(=O)NCCN(CC(=O)NCCN(CC(=O)NCCN(CC(=O)N[C@@H](CCCNC(=N)N)C(=O)O)C(=O)Cn1ccc(N)nc1=O)C(=O)Cn1ccc(N)nc1=O)C(=O)Cn1cc(C)c(=O)[nH]c1=O)C(=O)Cn1ccc(N)nc1=O)C(=O)Cn1cnc2c(N)ncnc21)C(=O)Cn1ccc(N)nc1=O)C(=O)Cn1cnc2c(N)ncnc21)C(=O)Cn1ccc(N)nc1=O)C(=O)Cn1cc(C)c(=O)[nH]c1=O)C(=O)Cn1cnc2c(=O)[nH]c(N)nc21)C(=O)Cn1cc(C)c(=O)[nH]c1=O)C(=O)Cn1cc(C)c(=O)[nH]c1=O

inhibition [5]: 76% | Activity [6]: 24% | Activity [7]: 72% | Activity [8]: 85%
SMILES: C=Cc1nc(N)nc2c1ncn2CC(=O)N(CCN)CC(=O)NCCN(CC(=O)NCCN(CC(=O)NCCN(CC(=O)NCCN(CC(=O)NCCN(CC(=O)NCCN(CC(=O)NCCN(CC(=O)NCCN(CC(=O)NCCN(CC(=O)NCCN(CC(=O)NCCN(CC(=O)NCCN(CC(=O)N[C@@H](CCCNC(=N)N)C(=O)O)C(=O)Cn1ccc(N)nc1=O)C(=O)Cn1cnc2c(N)ncnc21)C(=O)Cn1ccc(N)nc1=O)C(=O)Cn1cnc2c(N)ncnc21)C(=O)Cn1cnc2c(=O)[nH]c(N)nc21)C(=O)Cn1cnc2c(N)ncnc21)C(=O)Cn1cc(C)c(=O)[nH]c1=O)C(=O)Cn1cc(C)c(=O)[nH]c1=O)C(=O)Cn1cc(C)c(=O)[nH]c1=O)C(=O)Cn1cnc2c(=O)[nH]c(N)nc21)C(=O)Cn1cnc2c(N)ncnc21)C(=O)Cn1cc(C)c(=O)[nH]c1=O

Activity [9]: 8% | Activity [10]: 90% | inhibition [11]: 10% | Activity [12]: 10%
SMILES: C=Cc1nc(N)nc2c1ncn2CC(=O)N(CCN)CC(=O)NCCN(CC(=O)NCCN(CC(=O)NCCN(CC(=O)NCCN(CC(=O)NCCN(CC(=O)NCCN(CC(=O)NCCN(CC(=O)NCCN(CC(=O)NCCN(CC(=O)NCCN(CC(=O)NCCN(CC(=O)NCCN(CC(=O)N[C@@H](CCCNC(=N)N)C(=O)O)C(=O)Cn1cnc2c(N)ncnc21)C(=O)Cn1cc(C)c(=O)[nH]c1=O)C(=O)Cn1cnc2c(N)ncnc21)C(=O)Cn1cnc2c(=O)[nH]c(N)nc21)C(=O)Cn1cc(C)c(=O)[nH]c1=O)C(=O)Cn1cc(C)c(=O)[nH]c1=O)C(=O)Cn1cc(C)c(=O)[nH]c1=O)C(=O)Cn1cnc2c(=O)[nH]c(N)nc21)C(=O)Cn1ccc(N)nc1=O)C(=O)Cn1cnc2c(=O)[nH]c(N)nc21)C(=O)Cn1cnc2c(=O)[nH]c(N)nc21)C(=O)Cn1cc(C)c(=O)[nH]c1=O

Activity [13]: 52% | Activity [14]: 1% | Activity [15]: 2% | Activity [16]: 3% | Activity [17]: 2% | Activity [18]: 0% | Activity [19]: 62% | Tm [20]: 84.5 °C | Activity [21]: Active | Tm [22]: 80.3 °C | Activity [23]: 2%
SMILES: C=Cc1nc(N)nc2c1ncn2CC(=O)N(CCNC(C)=O)CC(=O)NCCN(CC(=O)NCCN(CC(=O)NCCN(CC(=O)NCCN(CC(=O)NCCN(CC(=O)NCCN(CC(=O)NCCN(CC(=O)NCCN(CC(=O)NCCN(CC(=O)NCCN(CC(=O)NCCN(CC(=O)N[C@@H](CCCNC(=N)N)C(=O)N[C@@H](CCCNC(=N)N)C(=O)NCC(N)=O)C(=O)Cn1cnc2c(=O)[nH]c(N)nc21)C(=O)Cn1cnc2c(N)ncnc21)C(=O)Cn1cc(C)c(=O)[nH]c1=O)C(=O)Cn1cc(C)c(=O)[nH]c1=O)C(=O)Cn1cnc2c(=O)[nH]c(N)nc21)C(=O)Cn1cnc2c(=O)[nH]c(N)nc21)C(=O)Cn1cnc2c(=O)[nH]c(N)nc21)C(=O)Cn1cnc2c(N)ncnc21)C(=O)Cn1cc(C)c(=O)[nH]c1=O)C(=O)Cn1cc(C)c(=O)[nH]c1=O)C(=O)Cn1cnc2c(=O)[nH]c(N)nc21

ΔTm [24]: -10.3 °C | ΔTm [25]: -9.9 °C | ΔTm [26]: -10.1 °C | ΔTm [27]: -11 °C | ΔTm [28]: -5.9 °C | ΔTm [29]: -6.1 °C | ΔTm [30]: -11 °C | ΔTm [31]: -10.6 °C
SMILES: CSCCc1nc(N)nc2c1ncn2CC(=O)N(CCNC(=O)CN(CCNC(=O)CN(CCNC(=O)CN(CCNC(C)=O)C(=O)Cn1cnc2c(=O)[nH]c(N)nc21)C(=O)Cn1cc(C)c(=O)[nH]c1=O)C(=O)Cn1cc(C)c(=O)[nH]c1=O)CC(=O)NCCN(CC(=O)NCCN(CC(=O)NCCN(CC(=O)NCCN(CC(=O)NCCN(CC(=O)NCCN(CC(=O)NCCN(CC(=O)N[C@@H](CCCNC(=N)N)C(=O)N[C@@H](CCCNC(=N)N)C(=O)NCC(N)=O)C(=O)Cn1cnc2c(=O)[nH]c(N)nc21)C(=O)Cn1cnc2c(N)ncnc21)C(=O)Cn1cc(C)c(=O)[nH]c1=O)C(=O)Cn1cc(C)c(=O)[nH]c1=O)C(=O)Cn1cnc2c(=O)[nH]c(N)nc21)C(=O)Cn1cnc2c(=O)[nH]c(N)nc21)C(=O)Cn1cnc2c(=O)[nH]c(N)nc21
